Test system: CF (HBE and HTE, dF508/dF508, Passage 0) cells
Assay: LDH activity (toxicity) of AV.TL65 plus proteasome inhibitor versus AAV alone
Type: cell-based, human
Details: for LDH (toxicity) activity compared to AAV without a proteasome inhibitor: augmenter + AV.TL65-gLuc-mCherry, 4 days after infection (FIG. 1B); for toxicity of the enhancement: augmenter combined with AV.TL65Luciferase-mCherry, ALI HBE cultures; for LDH relative to baseline: passage 0 (P0) cells
Source text: FIGS. 1A and 1B are a series of graphs showing the ratio of luciferase activity in cells treated with AV.TL65+proteasome inhibitor (PI) versus AAV alone (FIG. 1A) and the ratio of LDH activity in cells treated with AV.TL65+PI versus AAV alone (FIG. 1B). […] Relative Luminescence Units in CF HBE treated with AV.TL65 with PI exceeded 200-fold of AV.TL65 without PI. Toxicity of AV.TL65 with PI as measured by LDH activity was mostly below 150% of AV.TL65 without PI.
We have generated a novel AAV vector featuring a capsid that is highly efficient at transducing human airway epithelium in the apical membrane. Specifically, we have used AV.TL65-SP183-CFTRΔR to deliver an R-domain-partially-deleted CFTR minigene and AV.TL65Luciferase-mCherry, a dual reporter vector, to express luciferase and fluorescent mCherry protein. The AV.TL65-SP183-CFTRΔR rAAV vector included a polynucleotide comprising: a 5′ AAV ITR comprising the sequence of SEQ ID NO:15, an F5 enhancer comprising the sequence of SEQ ID NO:14 (which may include a 5′ EcoRI site and a 3′ XhoI site, as in SEQ ID NO:1), a tg83 promoter comprising the sequence of SEQ ID NO:2, a 5′ UTR comprising the sequence of SEQ ID NO:3, a hCFTRΔR minigene comprising the sequence of SEQ ID NO:4, a 3′ UTR comprising the sequence of SEQ ID NO:5, a s-pA comprising the sequence of SEQ ID NO:6, and a 3′ AAV ITR comprising the sequence of SEQ ID NO:16. For example, the packaged polynucleotide may include the sequence of SEQ ID NO:17. […] We have shown that combining AV.TL65Luciferase-mCherry with doxorubicin or idarubicin provides non-toxic enhancement of luciferase expression by more than 600-fold of air-liquid interface (ALI) human bronchial epithelial (HBE) cultures from 5 separate CF (homozygous dF508/dF508 CFTR) and non-CF donors compared to AV.TL65Luciferase-mCherry without proteasome inhibitor. In another experiment, doxorubicin and idarubicin+AV.TL65-gLuc-mCherry improved transduction over AAV without a proteasome inhibitor by over 200-fold (FIG. 1A, dashed line). Doxorubicin added to AV.TL65-gLuc-mCherry but not idarubicin had less than 150% LDH (toxicity) activity compared to AAV without a proteasome inhibitor (FIG. 1B; dashed line). Transduction efficiency gains in passage 0 (PO) cells were well above 200-fold better with doxorubicin and idarubicin with LDH <1.5× baseline for doxorubicin and >1.5× baseline for idarubicin.

`COc1cccc2c1C(=O)c1c(O)c3c(c(O)c1C2=O)C[C@@](O)(C(=O)CO)C[C@@H]3O[C@H]1C[C@H](N)[C@H](O)[C@H](C)O1` [doxorubicin] was tested, and the “LDH (toxicity) activity compared to AAV without a proteasome inhibitor” value was “less than 150%”, the “toxicity of the enhancement” value was “non-toxic” and the “LDH relative to baseline” value was < 1.5 × baseline.

`CC(=O)[C@]1(O)Cc2c(O)c3c(c(O)c2[C@@H](O[C@H]2C[C@H](N)[C@H](O)[C@H](C)O2)C1)C(=O)c1ccccc1C3=O` [idarubicin] was tested, and the “LDH (toxicity) activity compared to AAV without a proteasome inhibitor” value was ≥ 150%, the “toxicity of the enhancement” value was “non-toxic” and the “LDH relative to baseline” value was > 1.5 × baseline.

Reference: patent US20220195461A1, “METHODS AND COMPOSITIONS FOR TRANSGENE EXPRESSION” (priority 2019, published 2022)
